Results reported in ChEMBL document CHEMBL6096738, “Optimization of Single Relaxin B-Chain Peptide Leads to the Identification of R2R01, a Potent, Long-Acting RXFP1 Agonist for Cardiovascular and Renal Diseases” (J Med Chem, 2025).
Starred links: 1 amine or outer side, 2 acyl side, 3 side chain; linkers in the order of their positions; H or OH if unused. Non-standard residues stand in square brackets, D forms with d. Residues, ends and D or L forms follow the SMILES beside them. Groups on a side chain read outwards from the residue. *: point of attachment. X2 = CCCCCCCCCCCCCCCC(=O)N[C@@H](CCC(=O)N[C@@H](CCC(=O)N[C@@H](CCC(=O)NCCCOCCOCCOCCCNC(=O)CCC(=O)NCCCOCCOCCOCCCNC(=O)CCC(=O)NCCCOCCOCCOCCCN*)C(=O)O)C(=O)O)C(=O)O; X1 = CCCCCCCCCCCCCCCC(=O)N[C@@H](CCC(=O)N[C@@H](CCC(=O)N[C@@H](CCC(=O)NCCCOCCOCCOCCCNC(=O)CCC(=O)NCCCOCCOCCOCCCN*)C(=O)O)C(=O)O)C(=O)O; Suc = O=C(CCC(=O)[*:2])[*:1]; αMeK = C[C@](N)(CCCCN)C(=O)O; Aib = CC(C)(N)C(=O)O

How the values were obtained:
[1] = biological target: T1, Relaxin receptor 1 (Homo sapiens) (UniProt Q9HBX9); assay: Agonist activity at human RXFP1 expressed in 2%HSA treated human OVCAR-5 cells assessed as intracellular cAMP accumulation by measuring maximal efficacy incubated for 30 mins with 2% HSA pretreated compound by HTRF assay relative to control; format: functional, cell-based; details: filed as agonist
T1 sequence (whole entry): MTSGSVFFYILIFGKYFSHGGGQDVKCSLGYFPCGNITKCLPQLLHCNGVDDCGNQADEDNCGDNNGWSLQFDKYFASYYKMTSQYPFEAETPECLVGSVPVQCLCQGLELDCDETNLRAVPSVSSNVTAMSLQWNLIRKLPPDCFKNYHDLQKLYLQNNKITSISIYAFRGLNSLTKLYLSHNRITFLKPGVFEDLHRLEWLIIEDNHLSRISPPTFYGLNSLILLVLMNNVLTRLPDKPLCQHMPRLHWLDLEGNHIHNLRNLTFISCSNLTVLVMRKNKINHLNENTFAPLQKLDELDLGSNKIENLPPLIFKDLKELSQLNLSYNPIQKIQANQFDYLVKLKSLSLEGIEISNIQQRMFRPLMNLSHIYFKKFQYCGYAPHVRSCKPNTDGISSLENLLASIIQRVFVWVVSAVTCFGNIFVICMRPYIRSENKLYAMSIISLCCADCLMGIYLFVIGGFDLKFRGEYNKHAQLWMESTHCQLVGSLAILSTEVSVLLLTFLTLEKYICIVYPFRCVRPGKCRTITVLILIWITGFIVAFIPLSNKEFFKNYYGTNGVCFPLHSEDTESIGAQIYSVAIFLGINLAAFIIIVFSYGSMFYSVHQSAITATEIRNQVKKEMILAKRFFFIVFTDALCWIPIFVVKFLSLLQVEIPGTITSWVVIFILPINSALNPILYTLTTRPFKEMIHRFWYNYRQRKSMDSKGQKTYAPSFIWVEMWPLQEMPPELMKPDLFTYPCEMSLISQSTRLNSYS

[2] = Half-life in female Gottingen pig at 1 mg/kg, iv measured after 198 hrs by LC-HRMS analysis; format: ADME, organism-based, Sus scrofa; details: in vivo
[3] = Induction of mast cell degranulation in human LAD2 cells assessed as beta-hexosaminidase release by measuring 4-methylumbelliferyl N-acetyl-beta-D-glucosaminide hydrolysis incubated for 30 mins by plate reader analysis; format: toxicity, cell-based; details: probe 4-methylumbelliferyl N-acetyl-beta-D-glucosaminide
[4] = Half-life in male Sprague-Dawley rat at 1 mg/kg, iv measured after 198 hrs by LC-HRMS analysis; format: ADME, organism-based; details: in vivo
[5] = Drug metabolism in female Gottingen pig assessed as fatty acid chain oxidation mediated M+16 metabolite formation by measuring metabolite to parent compound AUC ratio at 1 mg/kg, iv measured after 198 hrs by LC-HRMS analysis; format: ADME, organism-based, Sus scrofa; details: in vivo
[6] = biological target: T1, Relaxin receptor 1 (Homo sapiens); assay: Agonist activity at human RXFP1 expressed in human OVCAR-5 cells assessed as intracellular cAMP accumulation by measuring maximal efficacy incubated for 30 mins by HTRF assay relative to control; format: functional, cell-based; details: filed as agonist
[7] = test system: Rattus norvegicus; assay: Chronotropic effect in pithed male Sprague-Dawley rat assessed as increase in heart rate at 0.3 mg/kg, iv measured after 60 mins relative to control; format: functional; details: 1 h
[8] = AUC (0 to 24 hrs) in male Sprague-Dawley rat at 1 mg/kg, iv measured after 198 hrs by LC-HRMS analysis; format: ADME, organism-based; details: in vivo
[9] = Bioavailability in male Sprague-Dawley rat at 3 mg/kg, sc measured after 198 hrs by LC-HRMS analysis; format: ADME, organism-based; details: in vivo
[10] = Bioavailability in female Gottingen pig at 1 mg/kg, sc measured after 198 hrs by LC-HRMS analysis; format: ADME, organism-based, Sus scrofa; details: in vivo
[11] = Drug metabolism in male Beagle dog assessed as fatty acid chain oxidation mediated M+16 metabolite formation by measuring metabolite to parent compound AUC ratio at 1 mg/kg, iv measured after 198 hrs by LC-HRMS analysis; format: ADME, organism-based, Canis lupus familiaris; details: in vivo
[12] = biological target: T2, Relaxin receptor 1 (Homo sapiens, UniProt Q9HBX9); assay: Agonist activity at human RXFP1 expressed in human OVCAR-5 cells assessed as intracellular cAMP accumulation incubated for 30 mins by HTRF assay; format: functional, cell-based
T2 sequence (Q9HBX9 whole entry): T1 sequence (whole entry)

[13] = Induction of mast cell degranulation in human LAD2 cells assessed as beta-hexosaminidase release by measuring maximal efficacy of 4-methylumbelliferyl N-acetyl-beta-D-glucosaminide hydrolysis at 33 uM incubated for 30 mins by plate reader analysis relative to control; format: toxicity, cell-based; details: probe 4-methylumbelliferyl N-acetyl-beta-D-glucosaminide
[14] = Cmax in male Sprague-Dawley rat at 3 mg/kg, sc measured after 198 hrs by LC-HRMS analysis; format: ADME, organism-based; details: in vivo
[15] = biological target: T2, Relaxin receptor 1; assay: Agonist activity at human RXFP1 expressed in 2%HSA treated human OVCAR-5 cells assessed as intracellular cAMP accumulation incubated for 30 mins with 2% HSA pretreated compound by HTRF assay; format: functional, cell-based
[16] = Half-life in male Beagle dog at 1 mg/kg, iv measured after 198 hrs by LC-HRMS analysis; format: ADME, organism-based, Canis lupus familiaris; details: in vivo
[17] = test system: Rattus norvegicus; assay: Chronotropic effect in telemetered male Sprague-Dawley rat assessed as increase in heart rate administered subcutaneously and measured after 48 hrs; format: functional, organism-based; details: dose 0.1-1 mg/kg, route sc
[18] = Drug metabolism in male Sprague-Dawley rat assessed as fatty acid chain oxidation mediated M+16 metabolite formation by measuring metabolite to parent compound AUC ratio at 1 mg/kg, iv measured after 198 hrs by LC-HRMS analysis; format: ADME, organism-based; details: in vivo

| Structure (SMILES) | Emax [1] [%] | half-life [2] [h] | EC50 at 30 min [3] [µM] | half-life [4] [h] | Ratio AUC [5] | Emax [6] [%] | Activity [7] [%] | AUC(0-t) at 198 h [8] [µM·h] | bioavailability [9] [%] | bioavailability [10] [%] | Ratio AUC [11] | EC50 [12] [µM] | Emax at 0.5 h, 33 µM [13] [%] | Cmax [14] [µM] | EC50 [15] [µM] | half-life [16] [h] | Activity [17] | Ratio AUC [18] |
| --- | --- | --- | --- | --- | --- | --- | --- | --- | --- | --- | --- | --- | --- | --- | --- | --- | --- | --- |
| CCCCCCCCCCCCCCCC(=O)N[C@@H](CCC(=O)N[C@@H](CCC(=O)N[C@@H](CCC(=O)NCCCOCCOCCOCCCNC(=O)CCC(=O)NCCCOCCOCCOCCCNC(=O)CCC(=O)NCCCC[C@H](NC(=O)CNC(=O)[C@H](CCC(=O)O)NC(=O)C(C)(C)NC(=O)C(C)(C)NC(=O)[C@@H](NC(=O)[C@H](CCCCNC(C)=O)NC(=O)[C@H](C)NC(=O)[C@H](CCCNC(=N)N)NC(=O)[C@@H](NC(=O)[C@H](CCCCN)NC(=O)[C@H](CCC(=O)O)NC(=O)[C@H](CCCNC(=N)N)NC(=O)CNC(=O)[C@H](CCC(=O)O)NC(=O)[C@H](CC(C)C)NC(C)=O)C(C)C)[C@@H](C)CC)C(=O)N[C@@H](CO)C(=O)N[C@H](C(=O)N[C@@H](Cc1c[nH]c2ccccc12)C(=O)N[C@@H](CO)C(=O)NC(C)(C)C(=O)N[C@@H](CCCNC(=N)N)C(=O)N[C@@H](CCCCN)C(=O)N[C@@H](CCCCNC(C)=O)C(N)=O)[C@@H](C)O)C(=O)O)C(=O)O)C(=O)O (Ac-LEGREKVRAK(Ac)I[Aib][Aib]EGK([Suc-X1])STWS[Aib]RKK(Ac)-NH2) | 81 | 27.2 | 5.5 | 8.7 | 0.32 | 95 | 31.4 | 19.5 | 69 | 87 | 0.33 | 0.00128 | 58 | 2 | 0.145 | 9.2 | – | – |
| CCCCCCCCCCCCCCCC(=O)N[C@@H](CCC(=O)N[C@@H](CCC(=O)N[C@@H](CCC(=O)NCCCOCCOCCOCCCNC(=O)CCC(=O)NCCCOCCOCCOCCCNC(=O)CCC(=O)NCCCOCCOCCOCCCNC(=O)CCC(=O)NCCCC[C@H](NC(=O)CNC(=O)[C@H](CCC(=O)O)NC(=O)C(C)(C)NC(=O)C(C)(C)NC(=O)[C@@H](NC(=O)[C@H](CCCCNC(C)=O)NC(=O)[C@H](C)NC(=O)[C@H](CCCNC(=N)N)NC(=O)[C@@H](NC(=O)[C@H](CCCCN)NC(=O)[C@H](CCC(=O)O)NC(=O)[C@H](CCCNC(=N)N)NC(=O)CNC(=O)[C@H](CCC(=O)O)NC(=O)[C@H](CC(C)C)NC(C)=O)C(C)C)[C@@H](C)CC)C(=O)N[C@@H](CO)C(=O)N[C@H](C(=O)N[C@@H](Cc1ccccc1)C(=O)N[C@@H](CO)C(=O)N[C@@](C)(CCCCN)C(=O)N[C@@H](CCCNC(=N)N)C(=O)N[C@@H](C)C(=O)N[C@@H](CCCCNC(C)=O)C(N)=O)[C@@H](C)O)C(=O)O)C(=O)O)C(=O)O (Ac-LEGREKVRAK(Ac)I[Aib][Aib]EGK([Suc-X2])STFS[αMeK]RAK(Ac)-NH2) | 86 | 22.3 | > 33 | 7.8 | 0.25 | 97 | 40.3 | – | – | 74 | 0.11 | – | 48 | – | 0.0265 | 8.8 | Dose-dependent-effect | < 0.01 |
